For assay [1], the target named is Motilin receptor (Homo sapiens, UniProt O43193).
In assay [2] the target is Cannabinoid receptor 1 (Homo sapiens, UniProt P21554). It counts as functional, cell-based.
The target in assay [3] is Gamma-aminobutyric acid receptor subunit alpha-1/alpha-2/beta-2/gamma-2 (Homo sapiens, UniProt P14867+P18507+P47869+P47870). It is filed as protein-complex assay.
Assay [4] deals with T1, Alpha-1A adrenergic receptor (Homo sapiens, UniProt P35348).
T1 sequence (P35348 whole entry): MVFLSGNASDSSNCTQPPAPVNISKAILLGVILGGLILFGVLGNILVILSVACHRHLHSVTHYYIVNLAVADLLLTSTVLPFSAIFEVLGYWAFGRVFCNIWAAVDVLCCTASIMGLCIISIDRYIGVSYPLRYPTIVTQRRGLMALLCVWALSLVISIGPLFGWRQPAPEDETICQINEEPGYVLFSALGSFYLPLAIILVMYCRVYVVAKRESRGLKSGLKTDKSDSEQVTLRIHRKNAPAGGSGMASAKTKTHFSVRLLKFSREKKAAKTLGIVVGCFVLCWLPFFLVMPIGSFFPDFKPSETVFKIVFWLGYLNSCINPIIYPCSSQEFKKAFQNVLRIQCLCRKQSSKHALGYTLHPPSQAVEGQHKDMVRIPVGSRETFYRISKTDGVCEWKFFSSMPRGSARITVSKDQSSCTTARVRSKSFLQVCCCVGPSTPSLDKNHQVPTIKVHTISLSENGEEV
It counts as functional, cell-based.

Assay [5] has as its target T2, Adenosine receptor A3 (Homo sapiens, UniProt P0DMS8).
T2 sequence (P0DMS8 whole entry): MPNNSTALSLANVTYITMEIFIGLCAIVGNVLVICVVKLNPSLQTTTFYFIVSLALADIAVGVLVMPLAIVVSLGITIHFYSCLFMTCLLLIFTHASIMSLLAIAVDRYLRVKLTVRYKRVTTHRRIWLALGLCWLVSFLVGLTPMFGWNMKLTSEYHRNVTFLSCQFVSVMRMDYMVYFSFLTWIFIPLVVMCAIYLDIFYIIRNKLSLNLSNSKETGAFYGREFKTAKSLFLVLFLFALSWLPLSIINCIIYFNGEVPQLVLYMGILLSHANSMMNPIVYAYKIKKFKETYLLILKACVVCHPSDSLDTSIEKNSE

Assay [6] deals with D(3) dopamine receptor (Homo sapiens, UniProt P35462).
Chain of D(3) dopamine receptor (P35462 whole entry): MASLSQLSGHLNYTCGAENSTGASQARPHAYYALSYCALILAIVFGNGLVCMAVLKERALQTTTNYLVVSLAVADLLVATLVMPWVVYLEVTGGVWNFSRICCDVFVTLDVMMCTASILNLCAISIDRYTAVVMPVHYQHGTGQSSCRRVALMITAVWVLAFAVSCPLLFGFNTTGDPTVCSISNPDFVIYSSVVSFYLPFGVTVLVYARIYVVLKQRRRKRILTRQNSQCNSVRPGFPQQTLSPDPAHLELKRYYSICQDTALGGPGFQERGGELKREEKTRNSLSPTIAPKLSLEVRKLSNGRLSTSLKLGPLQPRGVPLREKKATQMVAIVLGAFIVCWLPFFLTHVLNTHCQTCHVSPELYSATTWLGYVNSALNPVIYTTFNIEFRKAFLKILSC
The target of assay [7] is T1, Alpha-1A adrenergic receptor. It is filed as functional, cell-based. This is another data set of the same source.
The target in assay [8] is 3',5'-cyclic-AMP phosphodiesterase 4D (Homo sapiens, UniProt Q08499). It counts as functional.
Chain of 3',5'-cyclic-AMP phosphodiesterase 4D (Q08499 whole entry): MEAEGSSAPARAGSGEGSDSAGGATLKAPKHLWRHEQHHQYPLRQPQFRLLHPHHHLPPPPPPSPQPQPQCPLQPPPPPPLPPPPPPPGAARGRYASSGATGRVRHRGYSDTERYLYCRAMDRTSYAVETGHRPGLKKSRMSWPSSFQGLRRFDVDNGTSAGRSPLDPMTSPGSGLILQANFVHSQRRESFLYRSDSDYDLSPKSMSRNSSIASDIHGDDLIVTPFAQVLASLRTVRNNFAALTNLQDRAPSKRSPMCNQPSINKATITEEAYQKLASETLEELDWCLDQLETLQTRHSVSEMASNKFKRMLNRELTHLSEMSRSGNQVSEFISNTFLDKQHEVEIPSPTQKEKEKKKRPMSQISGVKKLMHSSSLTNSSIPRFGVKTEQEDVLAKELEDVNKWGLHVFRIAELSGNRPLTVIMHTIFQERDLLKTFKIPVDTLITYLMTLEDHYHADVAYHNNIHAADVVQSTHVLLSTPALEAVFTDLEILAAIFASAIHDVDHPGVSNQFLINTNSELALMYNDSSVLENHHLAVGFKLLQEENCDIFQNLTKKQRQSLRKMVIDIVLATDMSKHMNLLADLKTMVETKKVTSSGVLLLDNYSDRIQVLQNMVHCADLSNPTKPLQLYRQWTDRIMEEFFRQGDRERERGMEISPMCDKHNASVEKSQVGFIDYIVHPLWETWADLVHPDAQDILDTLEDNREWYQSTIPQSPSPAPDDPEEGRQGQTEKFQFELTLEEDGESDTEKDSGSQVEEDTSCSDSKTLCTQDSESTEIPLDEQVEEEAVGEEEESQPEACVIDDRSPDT
Assay [9] has as its target T3, Amine oxidase [flavin-containing] A (Homo sapiens, UniProt P21397).
T3 sequence (P21397 whole entry): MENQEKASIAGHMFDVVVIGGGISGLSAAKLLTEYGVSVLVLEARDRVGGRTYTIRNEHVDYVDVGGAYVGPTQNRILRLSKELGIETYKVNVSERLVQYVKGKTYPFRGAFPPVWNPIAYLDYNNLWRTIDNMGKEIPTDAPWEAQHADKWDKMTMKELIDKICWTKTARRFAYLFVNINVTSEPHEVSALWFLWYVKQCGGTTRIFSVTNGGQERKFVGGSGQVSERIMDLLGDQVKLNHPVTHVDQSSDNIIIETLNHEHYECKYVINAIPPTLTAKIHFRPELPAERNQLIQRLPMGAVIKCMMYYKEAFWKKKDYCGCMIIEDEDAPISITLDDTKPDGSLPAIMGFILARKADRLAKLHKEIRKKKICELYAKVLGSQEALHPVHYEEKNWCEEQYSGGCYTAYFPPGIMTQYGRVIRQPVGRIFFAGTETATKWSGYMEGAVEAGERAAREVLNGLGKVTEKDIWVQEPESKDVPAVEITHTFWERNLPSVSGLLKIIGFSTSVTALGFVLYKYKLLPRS
It counts as functional.

Assay [10] deals with Gamma-aminobutyric acid receptor subunit alpha-1 (Rattus norvegicus, UniProt P62813).
Chain of Gamma-aminobutyric acid receptor subunit alpha-1 (P62813 whole entry): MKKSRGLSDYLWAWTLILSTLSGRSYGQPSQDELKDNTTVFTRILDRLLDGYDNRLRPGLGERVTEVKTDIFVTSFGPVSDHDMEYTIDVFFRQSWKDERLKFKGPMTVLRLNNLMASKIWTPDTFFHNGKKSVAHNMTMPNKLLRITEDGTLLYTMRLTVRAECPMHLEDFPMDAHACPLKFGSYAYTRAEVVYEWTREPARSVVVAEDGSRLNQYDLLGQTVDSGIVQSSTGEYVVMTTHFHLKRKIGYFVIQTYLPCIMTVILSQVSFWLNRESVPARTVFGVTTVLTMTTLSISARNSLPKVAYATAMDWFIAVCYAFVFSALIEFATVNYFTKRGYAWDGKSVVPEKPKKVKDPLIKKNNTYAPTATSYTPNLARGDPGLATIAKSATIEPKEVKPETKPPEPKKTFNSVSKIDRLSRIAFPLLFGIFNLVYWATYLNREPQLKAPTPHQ
Assay [11] concerns the target T4, Neuropeptide Y receptor type 1 (Homo sapiens, UniProt P25929).
T4 sequence (P25929 whole entry): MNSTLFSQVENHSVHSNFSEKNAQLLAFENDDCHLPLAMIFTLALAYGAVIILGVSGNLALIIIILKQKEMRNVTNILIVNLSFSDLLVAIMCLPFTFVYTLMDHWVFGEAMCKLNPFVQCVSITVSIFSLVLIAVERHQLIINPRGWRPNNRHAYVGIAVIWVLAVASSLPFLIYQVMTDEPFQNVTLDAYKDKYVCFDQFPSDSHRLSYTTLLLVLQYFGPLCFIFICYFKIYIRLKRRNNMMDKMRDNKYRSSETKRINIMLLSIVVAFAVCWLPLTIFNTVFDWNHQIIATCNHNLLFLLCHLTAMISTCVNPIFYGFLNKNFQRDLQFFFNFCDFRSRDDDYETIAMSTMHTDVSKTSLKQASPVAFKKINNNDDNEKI

Assay [12] concerns the target Glutamate receptor ionotropic, NMDA 1 (Rattus norvegicus, UniProt P35439).
Further: assay procedure not described here.

Chain of Gamma-aminobutyric acid receptor subunit alpha-1/alpha-2/beta-2/gamma-2 (P14867 whole entry): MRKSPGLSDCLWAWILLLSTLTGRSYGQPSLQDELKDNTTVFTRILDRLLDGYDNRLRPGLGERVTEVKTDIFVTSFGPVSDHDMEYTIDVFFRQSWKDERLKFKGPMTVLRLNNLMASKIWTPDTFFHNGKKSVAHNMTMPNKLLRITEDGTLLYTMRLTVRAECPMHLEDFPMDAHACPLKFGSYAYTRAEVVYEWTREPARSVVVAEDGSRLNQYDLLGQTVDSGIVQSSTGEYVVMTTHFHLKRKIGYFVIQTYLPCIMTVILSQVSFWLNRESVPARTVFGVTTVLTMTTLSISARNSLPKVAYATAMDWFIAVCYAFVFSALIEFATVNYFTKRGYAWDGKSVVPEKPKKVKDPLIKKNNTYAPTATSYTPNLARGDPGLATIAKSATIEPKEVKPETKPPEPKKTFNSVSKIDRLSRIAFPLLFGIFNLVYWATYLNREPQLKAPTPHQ
Chain of Gamma-aminobutyric acid receptor subunit alpha-1/alpha-2/beta-2/gamma-2 (P47870 whole entry): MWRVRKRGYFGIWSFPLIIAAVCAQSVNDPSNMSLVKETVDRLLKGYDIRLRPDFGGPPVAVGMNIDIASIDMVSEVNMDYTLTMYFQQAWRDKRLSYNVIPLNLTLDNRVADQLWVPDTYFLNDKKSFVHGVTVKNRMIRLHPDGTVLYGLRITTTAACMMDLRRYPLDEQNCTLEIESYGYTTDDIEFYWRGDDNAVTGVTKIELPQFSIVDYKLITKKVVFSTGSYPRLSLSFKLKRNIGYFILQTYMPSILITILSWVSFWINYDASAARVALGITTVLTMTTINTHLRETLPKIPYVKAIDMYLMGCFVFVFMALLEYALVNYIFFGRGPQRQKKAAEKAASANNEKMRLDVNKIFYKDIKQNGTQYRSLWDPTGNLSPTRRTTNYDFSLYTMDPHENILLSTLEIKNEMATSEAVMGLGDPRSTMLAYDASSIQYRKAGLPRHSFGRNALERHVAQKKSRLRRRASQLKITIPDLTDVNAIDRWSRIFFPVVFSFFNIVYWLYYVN
Chain of Gamma-aminobutyric acid receptor subunit alpha-1/alpha-2/beta-2/gamma-2 (P18507 whole entry): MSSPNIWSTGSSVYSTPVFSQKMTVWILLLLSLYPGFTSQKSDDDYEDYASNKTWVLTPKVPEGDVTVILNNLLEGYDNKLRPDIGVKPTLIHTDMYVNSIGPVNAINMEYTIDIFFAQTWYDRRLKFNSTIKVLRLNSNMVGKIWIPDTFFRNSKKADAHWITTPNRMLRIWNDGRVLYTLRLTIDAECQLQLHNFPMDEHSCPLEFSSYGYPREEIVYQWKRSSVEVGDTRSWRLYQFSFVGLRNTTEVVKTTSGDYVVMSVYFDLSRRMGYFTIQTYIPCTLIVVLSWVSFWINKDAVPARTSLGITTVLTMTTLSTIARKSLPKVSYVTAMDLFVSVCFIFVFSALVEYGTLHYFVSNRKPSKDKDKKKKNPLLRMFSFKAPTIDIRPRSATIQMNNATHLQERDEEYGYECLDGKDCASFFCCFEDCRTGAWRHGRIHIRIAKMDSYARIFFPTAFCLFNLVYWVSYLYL
Chain of Gamma-aminobutyric acid receptor subunit alpha-1/alpha-2/beta-2/gamma-2 (P47869 whole entry): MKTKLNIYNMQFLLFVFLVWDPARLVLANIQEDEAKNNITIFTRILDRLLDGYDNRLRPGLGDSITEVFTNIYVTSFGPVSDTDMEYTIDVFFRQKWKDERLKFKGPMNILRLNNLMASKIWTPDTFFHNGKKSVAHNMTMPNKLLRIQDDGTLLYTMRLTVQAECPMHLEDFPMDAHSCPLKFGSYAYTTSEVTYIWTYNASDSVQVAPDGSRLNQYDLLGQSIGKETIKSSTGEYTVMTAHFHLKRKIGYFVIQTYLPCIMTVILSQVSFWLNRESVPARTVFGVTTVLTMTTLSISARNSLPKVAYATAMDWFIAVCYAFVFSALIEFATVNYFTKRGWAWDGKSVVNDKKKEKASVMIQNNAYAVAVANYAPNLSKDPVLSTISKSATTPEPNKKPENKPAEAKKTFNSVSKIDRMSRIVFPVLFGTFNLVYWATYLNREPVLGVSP
Chain of Motilin receptor (O43193 whole entry): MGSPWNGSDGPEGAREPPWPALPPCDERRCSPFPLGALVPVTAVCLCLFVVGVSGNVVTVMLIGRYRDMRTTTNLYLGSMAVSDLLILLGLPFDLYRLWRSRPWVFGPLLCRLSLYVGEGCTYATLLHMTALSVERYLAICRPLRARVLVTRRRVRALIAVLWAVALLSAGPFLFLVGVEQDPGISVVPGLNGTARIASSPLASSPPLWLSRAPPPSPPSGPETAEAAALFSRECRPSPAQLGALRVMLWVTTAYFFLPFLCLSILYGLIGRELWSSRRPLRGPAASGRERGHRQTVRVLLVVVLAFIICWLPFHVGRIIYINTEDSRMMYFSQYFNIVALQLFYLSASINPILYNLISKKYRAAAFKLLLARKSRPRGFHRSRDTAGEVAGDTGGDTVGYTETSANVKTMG
Chain of Cannabinoid receptor 1 (P21554 whole entry): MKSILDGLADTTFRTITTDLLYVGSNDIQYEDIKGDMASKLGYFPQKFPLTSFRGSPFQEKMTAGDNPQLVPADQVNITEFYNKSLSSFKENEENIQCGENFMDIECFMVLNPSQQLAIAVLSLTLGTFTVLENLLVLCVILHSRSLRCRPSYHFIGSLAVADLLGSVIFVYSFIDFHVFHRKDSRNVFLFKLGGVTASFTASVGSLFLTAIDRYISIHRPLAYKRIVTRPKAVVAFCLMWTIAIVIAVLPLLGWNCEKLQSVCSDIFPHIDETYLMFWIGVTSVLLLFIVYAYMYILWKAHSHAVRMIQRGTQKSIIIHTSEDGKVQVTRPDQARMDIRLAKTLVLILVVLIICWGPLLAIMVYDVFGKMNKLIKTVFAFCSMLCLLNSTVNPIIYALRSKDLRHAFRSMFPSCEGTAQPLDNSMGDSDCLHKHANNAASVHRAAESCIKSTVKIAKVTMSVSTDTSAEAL

With `C#Cc1cccc(Nc2ncnc3cc(OCCOC)c(OCCOC)cc23)c1` [ERLOTINIB], the AC50 in assay [1] is above 30 µM; in assay [2], above 10 µM; in assay [3] it was above 30 µM; in assay [4] it was above 30 µM; in [5], 3.01 µM; in assay [6], above 30 µM. In addition, the AC50 in assay [7], in assay [8] and in assay [9] was above 30 µM in each case.
For `CC(=O)/N=c1/sc(S(N)(=O)=O)nn1C` [METHAZOLAMIDE], the half-maximal activity concentration (AC50) in [10] is above 10 µM; in assay [1], above 10 µM; in assay [11], above 10 µM; in [3], above 30 µM; in assay [12] it was above 10 µM; in assay [5], above 30 µM. Further, the AC50 in [6] was above 30 µM; in assay [7] it was above 30 µM; in [8], above 30 µM; in assay [9] it was above 10 µM.
Regarding `CN1CCC[C@H]1c1cccnc1` [NICOTINE], the AC50 in assay [3], in assay [5] and in [7] was above 30 µM throughout.
For `CCCCCCCCCCC[C@@H](C[C@@H]1OC(=O)[C@H]1CCCCCC)OC(=O)[C@H](CC(C)C)NC=O` [ORLISTAT], the AC50 in assay [3], in [5] and in assay [7] was above 30 µM throughout.
In the case of `O=C1[C@H]2CCCC[C@H]2C(=O)N1CCCCN1CCN(c2nsc3ccccc23)CC1` [PEROSPIRONE], the AC50 in assay [3] was above 30 µM; in [5], above 30 µM; in assay [7] it was 0.003 µM.
In the case of `CN(C)CCC(c1ccccc1)c1ccccn1` (stereo unspecified) [PHENIRAMINE], the AC50 in assay [3], in [5] and in [7] was above 30 µM in each case.
Take `CC(C)(C)C(=O)NCCCC(=O)O` [PIVAGABINE]: the AC50 in assay [3], in assay [5] and in assay [7] was above 30 µM throughout.
In the case of `CC(C)[N+](C)(CCOC(=O)C1c2ccccc2Oc2ccccc21)C(C)C` [PROPANTHELINE], the AC50 in assay [3], in assay [5] and in assay [7] was above 30 µM throughout.
As for `CN(C)C(=O)c1nc(CNC(=O)CN)n(-c2ccc(Cl)cc2C(=O)c2ccccc2Cl)n1` [RILMAZAFONE], the AC50 in [3], in assay [5] and in assay [7] was above 30 µM in each case.
Turning to `NC(=O)NS(=O)(=O)c1ccc(N)cc1` [SULFACARBAMIDE], the AC50 in assay [3], in assay [5] and in assay [7] was above 30 µM each time.
Turning to `CCCCCCCCCCCCCCCC(=O)OC/C=C(C)/C=C/C=C(C)/C=C/C1=C(C)CCCC1(C)C` [VITAMIN A PALMITATE], the half-maximal activity concentration (AC50) in [3] is above 30 µM; in assay [5], 11.6 µM; in assay [7] it was above 30 µM.

The term AC50 denotes the concentration at which the activity in the assay is half-maximal.
